Test system: MM cell lines
Assay: In vitro Multiple Myeloma (MM) assay (Assay 7); on Assay Number 7: In vitro Multiple Myeloma (MM) assay: key: a ‘+’ indicates a positive result for desired activity; a ‘−’ indicates a negative result for desired activity
Type: cell-based
Procedure: Assay 7) In vitro Multiple Myeloma (MM) assay. The ability of SHIP activators to reduce tumor cell survival was assessed in MM cell lines treated with the test compound. The lines OPM1, OPM2, MM.1S and RPMI 8226 were plated at a density of 1×10^5 cells/mL in 200 μL of medium with various concentrations of the test compound, and viable cell numbers were determined on day 3 and day 5 by trypan blue exclusion. The lines RPMI 8226 and U266 were plated at a density of 1×10^6 cells/mL in 250 μL of medium with various concentrations of the test compound. At day 4, the medium of each culture was replaced by fresh medium containing the same concentration of test compound. At day 7, the viable cell number of each culture was determined by trypan blue exclusion.
MM cell lines were cultured in 96 well plates seeded with 3×10^4 cells suspended in 200 μL of medium along with various concentrations of test compound (and associated cyclodextran vehicle control), with LY294002 serving as a positive control in the experiments. After 24-48 hrs of culture, […] of [3H]-thymidine (GE Healthcare, Baie D'Urfe, Canada) being added for the final 8 hours. Cells were harvested and DNA associated radioactivity was measured via liquid scintillation counting using a Wallac Microbeta counter (Perkin-Elmer; Boston, Mass.).
The ability of SHIP activators to reduce tumor cell survival was assessed in multiple myeloma (MM) cell lines treated with Compound 100 or AQX-016A. The lines OPM1, OPM2, MM.1S and RPMI 8226 were plated at a density of 1×10^5 cells/mL in 200 μL of medium with various concentrations of Compound 100, and viable cell numbers were determined on day 3 and day 5 by trypan blue exclusion. The lines RPMI 8226 and U266 were plated at a density of 1×10^6 cells/mL in 250 μL of medium with various concentrations of AQX-016A. At day 4, the medium of each culture was replaced by fresh medium containing the same concentration of AQX-016A. At day 7, the viable cell number of each culture was determined by trypan blue exclusion. Experiments were performed in triplicate.
Proliferation (DNA synthesis) assays. Proliferation was measured by measuring incorporation of [^3H]-thymidine into cells. MM cell lines were cultured in 96 well plates seeded with 3×10^4 cells suspended in 200 μL, of medium along with various concentrations of Compound 100 or AQX-016A (and associated cyclodextran vehicle control), with LY294002 serving as a positive control in the indicated experiments. After 24-48 hrs of culture, 1 μCi of [^3H]-thymidine (GE Healthcare, Baie D'Urfe, Canada) being added for the final 8 hours. Plates were frozen, which also aided in cell lysis, to terminate the experiments. Cells were then harvested onto glass fibre filters using an automatic cell harvester (TomTech; Orange, Conn.) and DNA associated radioactivity was measured via liquid scintillation counting using a Wallac Microbeta counter (Perkin-Elmer; Boston, Mass.). Wells were set up in triplicate and data is expressed as mean+/−SEM.

Compound: Cc1cc(O)cc2c1[C@]1(C)CCC3C(C)(C)CCC[C@]3(C)[C@H]1C2 (some centres unmarked) [Compound 100]
- Assay Number 7: In vitro Multiple Myeloma (MM) assay: +
- MM proliferation (viable cell numbers, trypan blue exclusion): inhibits MM proliferation at lower concentrations than AQX-016A
